From paper PMC6843736 (Molecular Pain, 2019)
“And” between values parts separate entries of the source, which are not always exact repeats. Identical values can stand only once. Counter-ions that a name gives are not always drawn.

Assays:
[1] = test system: rat; settings: i.p.; cited from earlier work
[2] = test system: rats with trigeminal chronic constriction injury (CCI); assay: Whisker pad mechanical allodynia; format: in vivo, rat; settings: for dose dependence of mechanical threshold at peak time: 2 h after treatment (gabapentin 1 h); for dose dependence of mechanical threshold at peak time / minimal dose required to restore mechanical threshold to baseline: i.p. or p.o.; for peak time of mechanical threshold: i.p. or p.o. treatment; for effective dose decreasing neuropathic hypersensitivity: rodent trigeminal nerve injury models, pioglitazone i.p.; for attenuation of mechanical allodynia: doses as high as 1000 mg/kg; for mechanical threshold 1 h after injection: ELB00824 3 mg/kg i.p. and/or gabapentin 0.3 mg/kg i.p., one-time dose
[3] = test system: rats; assay: Observation of neurobehavioral adverse effects after single treatment in rats; format: in vivo, rat
[4] = Pharmacokinetic/toxicokinetic study and BBB permeability in rats; format: in vivo, rat
[5] = test system: mice with TIC injury; assay: Whisker pad mechanical allodynia; format: in vivo, mouse; settings: for allodynia compared to vehicle, ipsilateral side, week 6 / whisker pad mechanical threshold at 2 h post injection, week 3: ELB00824 10 mg/kg i.p., carbamazepine 30 mg/kg i.p.; for time of peak effect: week 3, one-time i.p. dose
[6] = test system: mice with TIC injury; assay: Zero maze anxiety test in mouse chronic TIC model; format: in vivo; settings: six weeks, 2 h post treatment; for time spent in the closed area of the maze: ELB00824 10 mg/kg, carbamazepine 30 mg/kg
[7] = test system: mice with TIC injury; assay: Light/dark place preference anxiety test in mouse chronic TIC model; format: in vivo; settings: six weeks; for latency to enter into the lighted chamber: two hours after injection
[8] = test system: Sprague-Dawley rats; assay: Preliminary 14-day repeat dose toxicity study in rats; format: in vivo, rat
[9] = target: hERG potassium channel (Homo sapiens, UniProt Q12809); assay: In vitro cardiovascular toxicity study; format: biochemical
hERG potassium channel, sequence (Q12809 whole entry): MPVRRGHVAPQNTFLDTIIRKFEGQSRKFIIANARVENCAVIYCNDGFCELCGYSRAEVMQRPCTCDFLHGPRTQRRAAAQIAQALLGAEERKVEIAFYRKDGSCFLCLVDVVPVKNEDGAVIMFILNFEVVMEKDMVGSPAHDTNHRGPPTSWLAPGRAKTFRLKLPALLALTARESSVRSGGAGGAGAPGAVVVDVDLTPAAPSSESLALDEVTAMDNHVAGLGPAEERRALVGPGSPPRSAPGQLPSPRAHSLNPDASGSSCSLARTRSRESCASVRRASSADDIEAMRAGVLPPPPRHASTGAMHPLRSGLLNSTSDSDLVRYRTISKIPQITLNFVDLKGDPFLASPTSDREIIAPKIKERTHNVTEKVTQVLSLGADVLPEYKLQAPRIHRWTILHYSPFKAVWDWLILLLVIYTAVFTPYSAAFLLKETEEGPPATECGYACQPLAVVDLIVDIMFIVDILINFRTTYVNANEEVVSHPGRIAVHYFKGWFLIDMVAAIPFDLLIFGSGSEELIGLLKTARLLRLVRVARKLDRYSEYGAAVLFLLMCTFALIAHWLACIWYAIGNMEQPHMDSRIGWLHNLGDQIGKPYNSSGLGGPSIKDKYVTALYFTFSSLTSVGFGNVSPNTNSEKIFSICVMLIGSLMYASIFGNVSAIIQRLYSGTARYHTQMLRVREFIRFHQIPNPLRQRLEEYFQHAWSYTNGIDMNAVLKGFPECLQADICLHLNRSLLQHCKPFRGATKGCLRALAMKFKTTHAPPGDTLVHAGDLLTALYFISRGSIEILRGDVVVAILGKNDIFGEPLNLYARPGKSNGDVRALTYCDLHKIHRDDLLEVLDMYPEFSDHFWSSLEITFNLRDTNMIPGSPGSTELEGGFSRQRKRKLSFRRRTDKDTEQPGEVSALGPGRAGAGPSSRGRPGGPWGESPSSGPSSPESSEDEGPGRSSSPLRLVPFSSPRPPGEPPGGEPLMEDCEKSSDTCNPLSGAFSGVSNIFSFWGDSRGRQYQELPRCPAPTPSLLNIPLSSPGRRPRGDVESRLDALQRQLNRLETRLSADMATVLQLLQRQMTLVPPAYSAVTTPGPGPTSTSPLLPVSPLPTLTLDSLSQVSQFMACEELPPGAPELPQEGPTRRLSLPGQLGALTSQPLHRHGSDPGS

[10] = target: T1, human PPARɣ receptor (Homo sapiens, UniProt P37231); assay: PPARɣ transactivation luciferase reporter assay in HEK 293 T cells; format: cell-based
T1 sequence (P37231 1-505): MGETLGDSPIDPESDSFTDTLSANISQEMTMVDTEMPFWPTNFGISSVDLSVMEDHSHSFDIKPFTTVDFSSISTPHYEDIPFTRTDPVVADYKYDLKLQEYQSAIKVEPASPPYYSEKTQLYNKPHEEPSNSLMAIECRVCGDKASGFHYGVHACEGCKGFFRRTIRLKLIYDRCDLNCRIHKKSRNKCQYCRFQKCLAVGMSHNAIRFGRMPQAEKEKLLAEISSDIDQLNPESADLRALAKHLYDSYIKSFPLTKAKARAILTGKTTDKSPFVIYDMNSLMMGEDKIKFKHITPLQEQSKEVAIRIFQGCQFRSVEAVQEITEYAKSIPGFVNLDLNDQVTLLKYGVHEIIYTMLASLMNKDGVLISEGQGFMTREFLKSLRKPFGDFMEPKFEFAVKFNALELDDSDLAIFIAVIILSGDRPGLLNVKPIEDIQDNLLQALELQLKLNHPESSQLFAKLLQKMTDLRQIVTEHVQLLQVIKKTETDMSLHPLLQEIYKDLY

[11] = test system: mouse bone marrow erythroblast; assay: Genotoxicity study, micronucleus test; format: in vivo; settings: up to highest concentration 500 mg/kg, intraperitoneal
[12] = male, Sprague-Dawley, rat, plasma, ip, 10 mg/kg
[13] = rat brain, 10 mg/kg i.p., 10 mg/kg
[14] = Sprague-Dawley, rat, plasma, po, 10 mg/kg
[15] = from AUC in μM·h, rat, 10 mg/kg i.p.
[16] = from AUC in μM·h, rat, 10 mg/kg i.p., 10 mg/kg
[17] = from AUC in μg·h/mL, rat, 10 mg/kg i.p.
[18] = from Cmax in μM, rat, 10 mg/kg i.p.
[19] = from Cmax in μM, rat, 10 mg/kg i.p., 10 mg/kg
[20] = from Cmax in μg/mL, rat, 10 mg/kg i.p.

In the case of `CCc1ccc(CCOc2ccc(CC3SC(=O)NC3=O)cc2)nc1` (stereo not shown) [Pioglitazone, pioglitazone hydrochloride, reference compound], the “rat LD50” value [1] is given as 558 to 587 mg/kg, the “dose dependence of mechanical threshold at peak time” value (“dose dependence” for short) [2] is given as “dose-dependently increased the mechanical threshold” and the “minimal dose required to restore mechanical threshold to baseline” value [2] is given as 1000 mg/kg. For the same molecule, the “peak time of mechanical threshold” value [2] was 2 h, the “effective dose decreasing neuropathic hypersensitivity” value [2] was 1000 mg/kg and the “toxic signs and symptoms” value ([3]; 300 mg/kg i.p. or p.o., most rats, beginning one day after treatment) was “showed toxic signs and symptoms”. The Tmax ([4]; male, Sprague-Dawley, rat, brain, ip, 10 mg/kg) was 1 h, the AUC(0-t) [4, 12] was 34500 ng·h/mL and 87.7 µM·h and the Cmax [4, 12] was 9770 ng/mL and 24.9 µM. The “Brain Cmax” value [4, 13] was 0.68 ± 0.14 μg/mL and 1.73 ± 0.22 μM.

For `CN(CCOc1ccc(CC2SC(=O)NC2=O)cc1)c1ccccn1` (stereo not shown) [Rosiglitazone, rosiglitazone, reference compound], the “attenuation of mechanical allodynia” value [2] was “did not attenuate mechanical allodynia”, the AUC(0-t) [4, 12] was 22800 ng·h/mL and 63.7 µM·h and the Cmax [4, 12] was 4500 ng/mL and 12.6 µM. The “Brain Cmax” value [4, 13] was 0.50 ± 0.06 μg/mL and 1.41 ± 0.27 μM.

For `O=C(Nc1ccccc1)c1cc([N+](=O)[O-])ccc1Cl` [GW9662, reference compound], the “change of mechanical threshold” value ([2]; 10–30 mg/kg i.p. alone, 1 to 4 h after injection) was “did not change mechanical threshold”.

With `NCC1(CC(=O)O)CCCCC1` [gabapentin, reference compound] the “time at which threshold was reduced to previous allodynic levels” value ([2]; 1 mg/kg single i.p. injection) was 2 h, the “dose dependence” value [2] was “dose-dependently increased the mechanical threshold” and the “mechanical threshold 1 h after injection” value [2] was 4.9 ± 1.2 g. The “peak time of mechanical threshold” value [2] was 1 h.

With `CC(C)Cc1ccc(C(C)C(=O)O)cc1` (stereo not shown) [ibuprofen, reference compound] the “attenuation of mechanical allodynia” value [2] was “neither acetaminophen nor ibuprofen attenuated mechanical allodynia”.

In the case of `NC(=O)N1c2ccccc2C=Cc2ccccc21` [carbamazepine, reference compound], the “allodynia compared to vehicle, ipsilateral side, week 6” value [5] is reported as “significantly improved allodynia”, the “whisker pad mechanical threshold at 2 h post injection, week 3” value [5] is reported as 1.4 ± 0.2 g and the “time of peak effect” value [5] is reported as 2 h. The “latency to move to the closed area” value [6] was “significantly increased latency”, the zone transitions ([6]; vs vehicle) was “significantly more” and the “time spent in the closed area of the maze” value [6] was “did not show significant differences”. The “latency to enter into the lighted chamber” value [7] was “decreased latency”.

In the case of `CCc1ccc(CC/C=C/c2ccc3c(c2)C(=O)CC3)cc1` [ELB00824, (E)-6–(4-(4-ethylphenyl)but-1-en-1-yl)-2,3-dihydro-1H-inden-1-one], the “allodynia compared to vehicle, contralateral side, week 6” value ([5]; 10 mg/kg i.p.) is reported as “significantly improved allodynia”, the “mechanical threshold relative to carbamazepine, week 3” value ([5]; 2 h post injection) is reported as 4.3 fold and the “allodynia compared to vehicle, ipsilateral side, week 6” value [5] is reported as “significantly improved allodynia”. For the same molecule, the “whisker pad mechanical threshold at 2 h post injection, week 3” value [5] was 6 ± 0.0 g, the “time of peak effect” value [5] was 2 h and the “latency to move to the closed area” value [6] was 11.6 ± 3.9 s. For the same molecule, the “time spent in the closed area of the maze” value [6] was 103 ± 21 s, the “mechanical threshold at 1.5 h” value ([2]; 2.5 mg topical (7% cream, 50 mg/cm^2)) was 8.9 ± 1.5 g and the “mechanical threshold at 1.5 h” value ([2]; 5 mg topical (7% cream, 100 mg/cm^2)) was 19.7 ± 3.1 g. For the same molecule, the “mechanical threshold at 3 h after treatment” value (from here on “mechanical threshold at 3 h”) ([2]; 10 mg/kg i.p.) was 3.5 ± 0.9 g, the “ipsilateral whisker pad mechanical threshold” value ([2]; 10 mg/kg i.p., 1 h, 5-14 days post-CCI) was 11.4 ± 2.2 g and the “ipsilateral whisker pad mechanical threshold (peak)” value ([2]; 10 mg/kg i.p., 2 h, ELB00824 only) was 14.9 ± 2.5 g. The “mechanical threshold at 3 h” value ([2]; 10 mg/kg p.o.) was 2.8 ± 0.5 g, the “dose dependence” value [2] was “dose-dependently increased the mechanical threshold” and the “mechanical threshold 1 h after injection” value [2] was 2.5 ± 0.3 g. The “onset of symptom relief” value ([2]; higher dose topical) was 0.5 h, the “minimal dose required to restore mechanical threshold to baseline” value [2] was 10 mg/kg and the “peak time of mechanical threshold” value [2] was 2 h. For the same molecule, the “effective dose decreasing neuropathic hypersensitivity” value [2] was 10 mg/kg, the “onset of symptom relief” value ([2]; systematic treatment, either i.p. or p.o., 10 mg/kg) was 1 h and the “mechanical threshold at 3 h” value ([2]; topical treatment) was 8.9 ± 1.1 g. For the same molecule, the “hematological, blood coagulation and serum biochemistry parameters (55 parameters) compared with controls” value ([8]; day 15, male and female) was “No significant changes”, the “hemoglobin and hematocrit values vs control” value ([8]; male 450 mg/kg group, day 15) was “slightly lower hemoglobin and hematocrit values” and the IC50 [9] was > 30 µM. The “observable neurobehavioral adverse effects” value ([3]; doses of up to 1000 mg/kg i.p. or p.o., one week observation) was “not discernable”, the “occupancy time and number of times that rearing occurred” value ([7]; compared with carbamazepine) was “less robust anti-anxiety behaviors” and the “latency to enter into the lighted chamber” value [7] was 10 ± 12 s. The “maximal activities (% control), PPARɣ activation” value [10] was 45 ± 4%, the Tmax ([4]; Sprague-Dawley, rat, brain, po, 10 mg/kg) was 3 h and the AUC(0-t) [4, 14] was 3030 ng·h/mL. The Cmax [4, 14] was 350 ng/mL, the Tmax [4, 14] was 1 h and the “Plasma AUC0–24h ratio ELB00824/Pioglitazone” value [4, 15] was 0.3. The “Plasma AUC0–24h ratio ELB00824/Rosiglitazone” value [4, 15] was 0.4, the “Brain AUC0–24h ratio ELB00824/Pioglitazone” value [4, 16] was 15 and the “Brain AUC0–24h ratio ELB00824/Rosiglitazone” value [4, 16] was 21. The “Brain AUC0–24h ratio ELB00824/Pioglitazone” value [4, 17] was 11, the “Brain AUC0–24h ratio ELB00824/Rosiglitazone” value [4, 17] was 17 and the “Plasma AUC0–24h ratio ELB00824/Pioglitazone” value [4, 17] was 0.2. The “Plasma AUC0–24h ratio ELB00824/Rosiglitazone” value [4, 17] was 0.3, the “Plasma Cmax ratio ELB00824/Pioglitazone” value [4, 18] was 0.2 and the “Plasma Cmax ratio ELB00824/Rosiglitazone” value [4, 18] was 0.3. For the same molecule, the “Brain Cmax ratio ELB00824/Pioglitazone” value [4, 19] was 5.4, the “Brain Cmax ratio ELB00824/Rosiglitazone” value [4, 19] was 6.7 and the “Brain Cmax ratio ELB00824/Pioglitazone” value [4, 20] was 4.0. The “Brain Cmax ratio ELB00824/Rosiglitazone” value [4, 20] was 5.5, the “Plasma Cmax ratio ELB00824/Pioglitazone” value [4, 20] was 0.1 and the “Plasma Cmax ratio ELB00824/Rosiglitazone” value [4, 20] was 0.2. For the same molecule, the concentration at 1 h ([4]; male, Sprague-Dawley, rat, brain, po, 10 mg/kg) was 1160 ng/mL and 4.01 µM, the concentration at 1 h ([4]; male, Sprague-Dawley, rat, brain, po, 30 mg/kg) was 4110 ng/mL and 14.2 µM and the concentration at 1 h ([4]; male, Sprague-Dawley, rat, brain, po, 120 mg/kg) was 7570 ng/mL and 26.1 µM. For the same molecule, the concentration at 1 h ([4]; male, Sprague-Dawley, rat, brain, po, 450 mg/kg) was 11000 ng/mL and 38 µM, the Kp ([4]; male, Sprague-Dawley, rat, brain/plasma, ip, 10 mg/kg) was 5.13 and the AUC(0-t) [4, 12] was 6550 ng·h/mL and 22.6 µM·h. The Cmax [4, 12] was 1120 ng/mL and 3.85 µM, the Tmax [4, 12] was 0.5 h and the concentration at 1 h ([4]; male, Sprague-Dawley, rat, plasma, po, 10 mg/kg) was 270 ng/mL and 940 nM. For the same molecule, the concentration at 1 h ([4]; male, Sprague-Dawley, rat, plasma, po, 30 mg/kg) was 820 ng/mL and 2.81 µM, the concentration at 1 h ([4]; male, Sprague-Dawley, rat, plasma, po, 120 mg/kg) was 1510 ng/mL and 5.2 µM and the concentration at 1 h ([4]; male, Sprague-Dawley, rat, plasma, po, 450 mg/kg) was 2200 ng/mL and 7.57 µM. For the same molecule, the “Brain AUC0–24h” value ([4]; rat brain, 10 mg/kg p.o.) was 10370 ng·h/mL, the “Brain Cmax” value ([4]; rat brain, 10 mg/kg p.o.) was 1.82 µg/mL and the “plasma Cmax and AUC0–24h relative to those of pioglitazone or rosiglitazone” value ([4]; rat plasma, 10 mg/kg i.p.) was “less than 0.3 fold”. The “relative brain bioavailability (AUC0–24h) of oral versus i.p. injection” value ([4]; rat, 10 mg/kg) was 31%, the “relative plasma bioavailability (AUC0–24h) of oral versus i.p. injection” value ([4]; rat, 10 mg/kg) was 46% and the “chromosome damage in mouse bone marrow erythroblast” value [11] was “did not induce a significant increase of chromosome damage”.

With `CC(=O)Nc1ccc(O)cc1` [acetaminophen, reference compound] the “attenuation of mechanical allodynia” value [2] was “neither acetaminophen nor ibuprofen attenuated mechanical allodynia”.
